Laboratory results reported in US12286424B2, “Small molecule inhibitors of galectin-3” (BRISTOL-MYERS SQUIBB COMPANY, priority 2020, dated 2025).
Like-named read-outs stand apart in the source and are kept apart here.

Molecular target: T1, hGalectin-3 (Homo sapiens, UniProt P17931)
T1 construct: made in house
Assay: Gal-3 ELISA assay (hGalectin-3 neutralization binding to asialofetuin)

[1] = biotin-tagged hGalectin-3 15 nM, ASF-coated plate, read-out: hGal3 IC50

T1 sequence (P17931 whole entry): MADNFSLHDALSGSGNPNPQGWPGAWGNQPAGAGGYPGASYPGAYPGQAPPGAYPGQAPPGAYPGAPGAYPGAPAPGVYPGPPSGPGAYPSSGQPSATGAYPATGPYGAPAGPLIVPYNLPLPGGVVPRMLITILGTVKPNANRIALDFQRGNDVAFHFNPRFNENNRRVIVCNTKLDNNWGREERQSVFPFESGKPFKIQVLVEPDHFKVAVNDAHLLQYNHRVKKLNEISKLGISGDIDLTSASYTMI

Compound	IC50 [1] [µM]	further results
O=C([C@@H]1O[C@H](CO)[C@H](O)[C@H](n2cc(-c3cccc(F)c3)nn2)[C@H]1O)N1CCN(c2ccc(O)cc2)CC1CO (single isomer, unassigned) [Example 34a]	1.3	
O=C([C@@H]1O[C@H](CO)[C@H](O)[C@H](n2cc(-c3cccc(F)c3)nn2)[C@H]1O)N1CCN(c2ccc(O)cc2)CC1CO (single isomer, unassigned) [Example 34b]	0.45	
O=C([C@@H]1O[C@H](CO)[C@H](O)[C@H](n2cc(-c3cccc(F)c3)nn2)[C@H]1O)N1CCN(c2ccc(O)cc2)C(CO)C1 (single isomer, unassigned) [Example 35a]	1.1	
O=C([C@@H]1O[C@H](CO)[C@H](O)[C@H](n2cc(-c3cccc(F)c3)nn2)[C@H]1O)N1CCN(c2ccc(O)cc2)C(CO)C1 (single isomer, unassigned) [Example 35b]	0.14	
CC1CN(c2ccc(O)cc2)CCN1C(=O)[C@@H]1O[C@H](CO)[C@H](O)[C@H](n2cc(-c3cccc(F)c3)nn2)[C@H]1O (single isomer, unassigned) [Example 36]	0.34	
C[C@@H]1CN(c2ccc(O)cc2)[C@@H](C)CN1C(=O)[C@@H]1O[C@H](CO)[C@H](O)[C@H](n2cc(-c3cccc(F)c3)nn2)[C@H]1O (single isomer, unassigned) [Example 37a]	0.35	
C[C@@H]1CN(c2ccc(O)cc2)[C@@H](C)CN1C(=O)[C@@H]1O[C@H](CO)[C@H](O)[C@H](n2cc(-c3cccc(F)c3)nn2)[C@H]1O (single isomer, unassigned) [Example 37b]	0.31	
OCC1CN(c2ccc(O)cc2)CCN1C[C@@H]1O[C@H](CO)[C@H](O)[C@H](n2cc(-c3cccc(F)c3)nn2)[C@H]1O (single isomer, unassigned) [Example 39a]	0.31	
OCC1CN(c2ccc(O)cc2)CCN1C[C@@H]1O[C@H](CO)[C@H](O)[C@H](n2cc(-c3cccc(F)c3)nn2)[C@H]1O (single isomer, unassigned) [Example 39b]	0.39	
OCC1CN(C[C@@H]2O[C@H](CO)[C@H](O)[C@H](n3cc(-c4cccc(F)c4)nn3)[C@H]2O)CCN1c1ccc(O)cc1 (single isomer, unassigned) [Example 40a]	0.94	
OCC1CN(C[C@@H]2O[C@H](CO)[C@H](O)[C@H](n3cc(-c4cccc(F)c4)nn3)[C@H]2O)CCN1c1ccc(O)cc1 (single isomer, unassigned) [Example 40b]	1.6	
COc1ccc(N2CC3CC2CN3C(=O)[C@@H]2O[C@H](CO)[C@H](O)[C@H](n3cc(-c4cccc(F)c4)nn3)[C@H]2O)cc1 (stereo in doubt) [Example 31, ((2R,3R,4S,5R,6R)-4-(4-(3-fluorophenyl)-1H-1,2,3-triazol-1-yl)-3,5-dihydroxy-6-(hydroxymethyl)tetrahydro-2H-pyran-2-yl)((1S,4S)-5-(4-methoxyphenyl)-2,5-diazabicyclo[2.2.1]heptan-2-yl)methanone]	0.22	
O=C([C@@H]1O[C@H](CO)[C@H](O)[C@H](n2cc(-c3cccc(F)c3)nn2)[C@H]1O)N1CCN(c2ccc(O)cc2)CC1 [Example 1, ((2R, 3R, 4S, 5R, 6R)-4-(4-(3-fluorophenyl)-1H-1,2,3-triazol-1-yl)-3,5-dihydroxy-6-(hydroxymethyl)tetrahydro-2H-pyran-2-yl)(4-(4-hydroxyphenyl)piperazin-1-yl) methanone]	0.35	
O=C([C@@H]1O[C@H](CO)[C@H](O)[C@H](n2cc(-c3cccc(F)c3)nn2)[C@H]1O)N1CCN(c2ccc(O)cn2)CC1 [Example 2]	0.27	IC50 (Table 1, read-out: hGal-3 IC50): 0.395 µM
O=C([C@@H]1O[C@H](CO)[C@H](O)[C@H](n2cc(-c3cccc(F)c3)nn2)[C@H]1O)N1CCN(c2ccc3[nH]ccc3c2)CC1 [Example 3]		IC50 (Table 1, read-out: hGal-3 IC50): 0.48 µM
O=C([C@@H]1O[C@H](CO)[C@H](O)[C@H](n2cc(-c3cccc(F)c3)nn2)[C@H]1O)N1CCN(c2ncc(O)cn2)CC1 [Example 4]		IC50 (Table 1, read-out: hGal-3 IC50): 0.85 µM
COc1cc(N2CCN(C(=O)[C@@H]3O[C@H](CO)[C@H](O)[C@H](n4cc(-c5cccc(F)c5)nn4)[C@H]3O)CC2)ccc1O [Example 5]		IC50 (Table 1, read-out: hGal-3 IC50): 0.36 µM

Compound	IC50 [1] [µM]	further results
Cn1ccc2cc(N3CCN(C(=O)[C@@H]4O[C@H](CO)[C@H](O)[C@H](n5cc(-c6cccc(F)c6)nn5)[C@H]4O)CC3)ccc21 [Example 6]		IC50 (Table 1, read-out: hGal-3 IC50): 0.42 µM
CS(=O)(=O)Nc1ccc(N2CCN(C(=O)[C@@H]3O[C@H](CO)[C@H](O)[C@H](n4cc(-c5cccc(F)c5)nn4)[C@H]3O)CC2)nc1 [Example 8, N-(6-(4-((2R,3R,4S,5R,6R)-4-(4-(3-fluorophenyl)-1H-1,2,3-triazol-1-yl)-3,5-dihydroxy-6-(hydroxymethyl)tetrahydro-2H-pyran-2-carbonyl)piperazin-1-yl)pyridin-3-yl)methanesulfonamide]	0.76	
O=C([C@@H]1O[C@H](CO)[C@H](O)[C@H](n2cc(-c3cccc(F)c3)nn2)[C@H]1O)N1CCN(c2ccc3[nH]c(=O)[nH]c3c2)CC1 [Example 9, 5-(4-((2R,3R,4S,5R,6R)-4-(4-(3-fluorophenyl)-1H-1,2,3-triazol-1-yl)-3,5-dihydroxy-6-(hydroxymethyl)tetrahydro-2H-pyran-2-carbonyl)piperazin-1-yl)-1H-benzo[d]imidazol-2(3H)-one]	0.39	
COc1ccc(N2CCN(C(=O)[C@@H]3O[C@H](CO)[C@H](O)[C@H](n4cc(-c5cccc(F)c5)nn4)[C@H]3OC)CC2)cc1 [Example 11, ((2R, 3R, 4S, 5R, 6R)-4-(4-(3-fluorophenyl)-1H-1,2,3-triazol-1-yl)-5-hydroxy-6-(hydroxymethyl)-3-methoxytetrahydro-2H-pyran-2-yl)(4-(4-methoxyphenyl)piperazin-1-yl) methanone]	0.3	
CO[C@@H]1[C@@H](n2cc(-c3cccc(F)c3)nn2)[C@@H](O)[C@@H](CO)O[C@H]1C(=O)N1CCN(c2ccc(O)cn2)CC1 [Example 12, ((2R, 3R, 4S, 5R, 6R)-4-(4-(3-fluorophenyl)-1H-1,2,3-triazol-1-yl)-5-hydroxy-6-(hydroxymethyl)-3-methoxytetrahydro-2H-pyran-2-yl)(4-(5-hydroxypyridin-2-yl)piperazin-1-yl) methanone]	0.47	
CO[C@@H]1[C@@H](n2cc(-c3cccc(F)c3)nn2)[C@@H](O)[C@@H](CO)O[C@H]1C(=O)N1CCN(c2ccc(O)cc2)CC1 [Example 13, ((2R,3R,4S,5R,6R)-4-(4-(3-fluorophenyl)-1H-1,2,3-triazol-1-yl)-5-hydroxy-6-(hydroxymethyl)-3-methoxytetrahydro-2H-pyran-2-yl)(4-(4-hydroxyphenyl)piperazin-1-yl)methanone]	0.15	
CO[C@@H]1[C@@H](n2cc(-c3cccc(F)c3)nn2)[C@@H](O)[C@@H](CO)O[C@H]1C(=O)N1CCN(c2ccc3c(ccn3C)c2)CC1 [Example 14]		IC50 (Table 2, read-out: hGal-3 IC50): 0.41 µM
COc1ccc(N2C[C@H]3C[C@@H]2CN3C(=O)[C@@H]2O[C@H](CO)[C@H](O)[C@H](n3cc(-c4cccc(F)c4)nn3)[C@H]2OC)cc1 [Example 16]		IC50 (Table 2, read-out: hGal-3 IC50): 0.53 µM
CO[C@@H]1[C@@H](n2cc(-c3cccc(F)c3)nn2)[C@@H](O)[C@@H](CO)O[C@H]1C(=O)N1C[C@H]2C[C@@H]1CN2c1ccc2c(c1)OCO2 [Example 17]		IC50 (Table 2, read-out: hGal-3 IC50): 0.311 µM
O=C(Nc1ccc(O)cc1)N1CCN(C(=O)[C@@H]2O[C@H](CO)[C@H](O)[C@H](n3cc(-c4cccc(F)c4)nn3)[C@H]2O)CC1 [Example 18, 4-((2R,3R,4S,5R,6R)-4-(4-(3-fluorophenyl)-1H-1,2,3-triazol-1-yl)-3,5-dihydroxy-6-(hydroxymethyl)tetrahydro-2H-pyran-2-carbonyl)-N-(4-hydroxyphenyl)piperazine-1-carboxamide]	0.25	
COc1ccc(N2C[C@@H]3C[C@H]2CN3C(=O)[C@@H]2O[C@H](CO)[C@H](O)[C@H](n3cc(-c4cccc(F)c4)nn3)[C@H]2O)cc1 [Example 19, ((2R,3R,4S,5R,6R)-4-(4-(3-fluorophenyl)-1H-1,2,3-triazol-1-yl)-3,5-dihydroxy-6-(hydroxymethyl)tetrahydro-2H-pyran-2-yl)((1S,4S)-5-(4-methoxyphenyl)-2,5-diazabicyclo[2.2.1]heptan-2-yl)methanone]	0.25	
O=C([C@@H]1O[C@H](CO)[C@H](O)[C@H](n2cc(-c3cccc(F)c3)nn2)[C@H]1O)N1C[C@@H]2C[C@H]1CN2c1ccc2c(c1)OCO2 [Example 20]		IC50 (Table 3, read-out: hGal-3 IC50): 0.249 µM
COc1ccc(OC)c(N2CC3CC2CN3C(=O)C2OC(CO)C(O)C(n3cc(-c4cccc(F)c4)nn3)C2O)c1 (centres unmarked) [Example 21]		IC50 (Table 3, read-out: hGal-3 IC50): 0.962 µM
COc1ccc(N2CC3CC2CN3C(=O)C2OC(CO)C(O)C(n3cc(-c4cccc(F)c4)nn3)C2O)cc1OC (centres unmarked) [Example 22]		IC50 (Table 3, read-out: hGal-3 IC50): 0.522 µM
COC(=O)Nc1ccc(N2C[C@@H]3C[C@H]2CN3C(=O)[C@@H]2O[C@H](CO)[C@H](O)[C@H](n3cc(-c4cccc(F)c4)nn3)[C@H]2O)cc1 [Example 23, methyl (4-((1S,4S)-5-((2R,3R,4S,5R,6R)-4-(4-(3-fluorophenyl)-1H-1,2,3-triazol-1-yl)-3,5-dihydroxy-6-(hydroxymethyl)tetrahydro-2H-pyran-2-carbonyl)-2,5-diazabicyclo[2.2.1]heptan-2-yl)phenyl)carbamate]	0.59	
CS(=O)(=O)Nc1ccc(N2C[C@@H]3C[C@H]2CN3C(=O)[C@@H]2O[C@H](CO)[C@H](O)[C@H](n3cc(-c4cccc(F)c4)nn3)[C@H]2O)cc1 [Example 24, N-(4-((1S,4S)-5-((2R,3R,4S,5R,6R)-4-(4-(3-fluorophenyl)-1H-1,2,3-triazol-1-yl)-3,5-dihydroxy-6-(hydroxymethyl)tetrahydro-2H-pyran-2-carbonyl)-2,5-diazabicyclo[2.2.1]heptan-2-yl)phenyl)methanesulfonamide]	0.68	
O=C([C@@H]1O[C@H](CO)[C@H](O)[C@H](n2cc(-c3cccc(F)c3)nn2)[C@H]1O)N1C[C@@H]2C[C@H]1CN2c1ccc(O)cc1 [Example 25, ((2R,3R,4S,5R,6R)-4-(4-(3-fluorophenyl)-1H-1,2,3-triazol-1-yl)-3,5-dihydroxy-6-(hydroxymethyl)tetrahydro-2H-pyran-2-yl)((1S,4S)-5-(4-hydroxyphenyl)-2,5-diazabicyclo[2.2.1]heptan-2-yl)methanone]	0.9	
